Measurements: US9980943B2, “Methods of treating muscular dystrophy” (BOARD OF REGENTS OF THE NEVADA SYSTEM OF HIGHER EDUCATION, …, priority 2013, dated 2018)

What was measured:
Format in all cases: cell-based, mouse
[1] = test system: α7 integrin (LacZ reporter in α7βgal+/− myoblasts); assay: Myoblast α7+/LacZ integrin FDG assay (Burkin assay in myoblasts, 96-well); details: α7+/LacZ myoblasts, 96-well
[2] = test system: α7 integrin (LacZ reporter in α7+/LacZ myotubes); assay: Myotube α7 integrin FDG assay (Burkin assay in myotubes, 96-well); details: myotubes
[3] = test system: β-galactosidase in CMV-LacZ C2C12 myotubes; assay: CMV-LacZ secondary screen in C2C12 myotubes (β-Gal stabilizing assay); details: for CMV-LACZ in Myotubes (β-galactosidase activity relative to DMSO): CMV-LacZ C2C12 myotubes, 96-well format
Summary of the method: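 A secondary screen identifies compounds that stabilize β-gal independently of the native promoter, using CMV-LacZ C2C12 cells. Curves span 0.5–40 μM at six levels, in duplicate.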

[4] = 5 uM, C2C12 CMV-LacZ myotubes, fold relative to DMSO
[5] = 10 uM, C2C12 CMV-LacZ myotubes, fold relative to DMSO
[6] = 20 uM, C2C12 CMV-LacZ myotubes, fold relative to DMSO
[7] = 40 uM, C2C12 CMV-LacZ myotubes, fold relative to DMSO

Row | Structure (SMILES) | Burkin Assay in Myoblasts, signal relative to DMSO ([1]; 0.5 uM) | Burkin Assay in Myoblasts, signal relative to DMSO ([1]; 1 uM) | Burkin Assay in Myoblasts, signal relative to DMSO ([1]; 5 uM) | Burkin Assay in Myoblasts, signal relative to DMSO ([1]; 10 uM) | Burkin Assay in Myoblasts, signal relative to DMSO ([1]; 20 uM) | Burkin Assay in Myoblasts, signal relative to DMSO ([1]; 40 uM) | Burkin Assay in Myotubes, α7 integrin LacZ reporter signal relative to DMSO ([2]; 0.5 uM) | Burkin Assay in Myotubes, α7 integrin LacZ reporter signal relative to DMSO ([2]; 1 uM) | Burkin Assay in Myotubes, α7 integrin LacZ reporter signal relative to DMSO ([2]; 5 uM) | Burkin Assay in Myotubes, α7 integrin LacZ reporter signal relative to DMSO ([2]; 10 uM) | Burkin Assay in Myotubes, α7 integrin LacZ reporter signal relative to DMSO ([2]; 20 uM) | Burkin Assay in Myotubes, α7 integrin LacZ reporter signal relative to DMSO ([2]; 40 uM) | CMV-LACZ in Myotubes, signal relative to DMSO [3, 4] | CMV-LACZ in Myotubes, signal relative to DMSO [3, 5] | CMV-LACZ in Myotubes, signal relative to DMSO [3, 6] | CMV-LACZ in Myotubes, signal relative to DMSO [3, 7] | Burkin Assay in Myoblasts, value relative to DMSO ([1]; 0.5 uM) | Burkin Assay in Myoblasts, value relative to DMSO ([1]; 1 uM) | Burkin Assay in Myoblasts, value relative to DMSO ([1]; 5 uM) | Burkin Assay in Myoblasts, value relative to DMSO ([1]; 10 uM) | other results
1 | N#Cc1ccccc1S(=O)(=O)N1CCN(C(=O)C2CCCCC2)CC1 [MLS002251986-01] | 1.046 | 0.9231 | 0.9512 | 0.8667 | 0.9793 | 0.9184 | 1.121 | 0.9515 | 1.073 | 1.088 | 0.9882 | 0.9112 | 0.9831 | 0.9609 | 0.8238 | 0.9776 |  |  |  |  | 
2 | O=C(NCc1ccccc1)C(c1ccc(O)cc1)N(C(=O)Cn1nnc(-c2cccs2)n1)c1ccc2c(c1)OCCO2 (centres unmarked) [MLS000123454-01] |  |  |  |  |  |  |  |  |  |  |  |  |  |  |  |  | 0.8934 | 0.8234 | 0.7862 | 0.8621 | Burkin Assay in Myoblasts, value relative to DMSO ([1]; 20 uM): 1.519; Burkin Assay in Myoblasts, value relative to DMSO ([1]; 40 uM): 1.013; Burkin Assay in Myotubes (signal relative to DMSO) ([2]; 0.5 uM): 1.067; Burkin Assay in Myotubes (signal relative to DMSO) ([2]; 1 uM): 0.8963; Burkin Assay in Myotubes (signal relative to DMSO) ([2]; 5 uM): 1.047; Burkin Assay in Myotubes (signal relative to DMSO) ([2]; 10 uM): 1.083; Burkin Assay in Myotubes (signal relative to DMSO) ([2]; 20 uM): 0.6841; Burkin Assay in Myotubes (signal relative to DMSO) ([2]; 40 uM): 0.8852; CMV-LACZ in Myotubes (β-galactosidase activity relative to DMSO) ([3]; 5 uM): 0.9353; CMV-LACZ in Myotubes (β-galactosidase activity relative to DMSO) ([3]; 10 uM): 0.9323; CMV-LACZ in Myotubes (β-galactosidase activity relative to DMSO) ([3]; 20 uM): 0.8796; CMV-LACZ in Myotubes (β-galactosidase activity relative to DMSO) ([3]; 40 uM): 1.055
3 | COc1ccc(N2CCN(CCC3Oc4cc([N+](=O)[O-])ccc4NC3=O)CC2)cc1 (centres unmarked) [MLS000696445-01] | 1.013 | 0.5621 | 0.867 | 0.8807 | 0.813 | 0.807 | 0.8602 | 0.8637 | 0.9714 | 0.625 | 0.5843 | 0.8433 | 1.268 | 1.011 | 1.122 | 0.924 |  |  |  |  | 
4 | COc1ccccc1C(=O)NCCOc1ccc(C(C)(C)C)cc1 [MLS001179624-01] | 0.993 | 0.9963 | 0.9515 | 0.9314 | 0.879 | 0.8828 | 0.9052 | 0.9709 | 1.048 | 1.104 | 0.8903 | 0.2183 | 0.8604 | 0.8788 | 0.452 | 0.4965 |  |  |  |  | 
5 | COc1ccc(Nc2ncnc3ccc(Br)cc23)cc1OC [MLS001196422-01] |  |  |  |  |  |  |  |  |  |  |  |  |  |  |  |  |  |  |  |  | fold induction at 0.5 µM ([1]; Mus musculus, Myoblast, 48 h, 0.5 uM, read-out: Burkin Assay in Myoblasts, signal relative to DMSO): 0.746; fold induction at 1 µM ([1]; Mus musculus, Myoblast, 48 h, 1 uM, read-out: Burkin Assay in Myoblasts, signal relative to DMSO): 0.978; fold induction at 5 µM ([1]; Mus musculus, Myoblast, 48 h, 5 uM, read-out: Burkin Assay in Myoblasts, signal relative to DMSO): 1.23; fold induction at 10 µM ([1]; Mus musculus, Myoblast, 48 h, 10 uM, read-out: Burkin Assay in Myoblasts, signal relative to DMSO): 1.33; fold induction at 20 µM ([1]; Mus musculus, Myoblast, 48 h, 20 uM, read-out: Burkin Assay in Myoblasts, signal relative to DMSO): 1.25; fold induction at 40 µM ([1]; Mus musculus, Myoblast, 48 h, 40 uM, read-out: Burkin Assay in Myoblasts, signal relative to DMSO): 1; fold induction at 0.5 µM ([2]; Mus musculus, Myotube, 0.5 uM, read-out: Burkin Assay in Myotubes, α7 integrin LacZ reporter signal relative to DMSO): 0.976; fold induction at 1 µM ([2]; Mus musculus, Myotube, 1 uM, read-out: Burkin Assay in Myotubes, α7 integrin LacZ reporter signal relative to DMSO): 1.14; fold induction at 5 µM ([2]; Mus musculus, Myotube, 5 uM, read-out: Burkin Assay in Myotubes, α7 integrin LacZ reporter signal relative to DMSO): 1.19; fold induction at 10 µM ([2]; Mus musculus, Myotube, 10 uM, read-out: Burkin Assay in Myotubes, α7 integrin LacZ reporter signal relative to DMSO): 1.32; fold induction at 20 µM ([2]; Mus musculus, Myotube, 20 uM, read-out: Burkin Assay in Myotubes, α7 integrin LacZ reporter signal relative to DMSO): 1.09; fold induction at 40 µM ([2]; Mus musculus, Myotube, 40 uM, read-out: Burkin Assay in Myotubes, α7 integrin LacZ reporter signal relative to DMSO): 0.975; fold induction at 5 µM ([3]; Mus musculus, 5 uM, C2C12 CMV-LacZ myotubes, fold relative to DMSO, read-out: CMV-LACZ in Myotubes, signal relative to DMSO): 0.896; fold induction at 10 µM ([3]; Mus musculus, 10 uM, C2C12 CMV-LacZ myotubes, fold relative to DMSO, read-out: CMV-LACZ in Myotubes, signal relative to DMSO): 0.893; fold induction at 20 µM ([3]; Mus musculus, 20 uM, C2C12 CMV-LacZ myotubes, fold relative to DMSO, read-out: CMV-LACZ in Myotubes, signal relative to DMSO): 0.83; fold induction at 40 µM ([3]; Mus musculus, 40 uM, C2C12 CMV-LacZ myotubes, fold relative to DMSO, read-out: CMV-LACZ in Myotubes, signal relative to DMSO): 0.856
6 | O=Cc1cnc(N2CCCCC2)s1 [MLS000721730-01] |  |  |  |  |  |  |  |  |  |  |  |  |  |  |  |  | 0.8377 | 0.8197 | 0.8157 | 0.8824 | Burkin Assay in Myoblasts, value relative to DMSO ([1]; 20 uM): 0.827; Burkin Assay in Myoblasts, value relative to DMSO ([1]; 40 uM): 0.9342; Burkin Assay in Myotubes (signal relative to DMSO) ([2]; 0.5 uM): 0.9195; Burkin Assay in Myotubes (signal relative to DMSO) ([2]; 1 uM): 1.064; Burkin Assay in Myotubes (signal relative to DMSO) ([2]; 5 uM): 0.8563; Burkin Assay in Myotubes (signal relative to DMSO) ([2]; 10 uM): 1.025; Burkin Assay in Myotubes (signal relative to DMSO) ([2]; 20 uM): 0.877; Burkin Assay in Myotubes (signal relative to DMSO) ([2]; 40 uM): 1.071; CMV-LACZ in Myotubes (β-galactosidase activity relative to DMSO) ([3]; 5 uM): 0.8504; CMV-LACZ in Myotubes (β-galactosidase activity relative to DMSO) ([3]; 10 uM): 0.9207; CMV-LACZ in Myotubes (β-galactosidase activity relative to DMSO) ([3]; 20 uM): 0.9311; CMV-LACZ in Myotubes (β-galactosidase activity relative to DMSO) ([3]; 40 uM): 1.031
7 | CC1CCCCC12NC(=O)N(CC(=O)OCc1cccc(F)c1)C2=O (centres unmarked) [MLS002161350-01] | 0.9404 | 0.9236 | 0.9531 | 0.9514 | 0.822 | 0.8262 | 0.9844 | 1.177 | 0.7783 | 0.987 | 1.049 | 1.116 | 0.906 | 0.9679 | 0.8847 | 1.046 |  |  |  |  | 
8 | CCCS(=O)(=O)N1CCCC(C(=O)c2cccc(Cl)c2)C1 (centres unmarked) [MLS000862690-01] |  |  |  |  |  |  |  |  |  |  |  |  | 0.8684 | 0.8943 | 0.9323 | 1.018 | 1.029 | 1.027 | 1.009 | 1.004 | Burkin Assay in Myoblasts, value relative to DMSO ([1]; 20 uM): 0.8717; Burkin Assay in Myoblasts, value relative to DMSO ([1]; 40 uM): 0.9753; Burkin Assay in Myotubes (signal relative to DMSO) ([2]; 0.5 uM): 1.125; Burkin Assay in Myotubes (signal relative to DMSO) ([2]; 1 uM): 0.9576; Burkin Assay in Myotubes (signal relative to DMSO) ([2]; 5 uM): 0.5941; Burkin Assay in Myotubes (signal relative to DMSO) ([2]; 10 uM): 0.9481; Burkin Assay in Myotubes (signal relative to DMSO) ([2]; 20 uM): 1.0131; Burkin Assay in Myotubes (signal relative to DMSO) ([2]; 40 uM): 1.0763
